This note sets out measurements from patent US8841332B2, “Fungicidal N-(2-phenoxyethyl)carboxamide derivatives and their aza, thia and sila analogues” (Bayer Intellectual Property GmbH, priority 2008, dated 2014).

Molecules are shown by their SMILES.

The series in a line: logP determination by HPLC on a reversed-phase column (C 18), EEC Directive 79/831 Annex V.A8. It is filed as physicochemical. Conditions: HPLC reversed-phase C 18, 40° C., 0.1% aqueous formic acid and acetonitrile, gradient 10% to 90% acetonitrile. As to the method: In the table 1, the logP values were determined in accordance with EEC Directive 79/831 Annex V.A8 by HPLC (High Performance Liquid Chromatography) on a reversed-phase column (C 18), using the method described below: Temperature: 40° C.; Mobile phases: 0.1% aqueous formic acid and acetonitrile; linear gradient from 10% acetonitrile to 90% acetonitrile. Calibration was carried out using unbranched alkan-2-ones (comprising 3 to 16 carbon atoms) with known logP values (determination of the logP values by the retention times using linear interpolation between two successive alkanones).

Take `CC(COc1ccc(Cl)cc1Cl)N(C(=O)c1cn(C)nc1I)C1CC1` (centres unmarked) [Example 19]: the logP was found to be 3.78.

On to `Cn1cc(C(=O)N(CCOc2c(Cl)cc(Cl)cc2Cl)C2CCCC2)c(C(F)F)n1` [Example 24], for which the logP was found to be 4.72.
